Assay results published in PubChem BioAssay AID1963982 (Molecular Pharmacology Branch, DTP, NCI, 2024).

System: 313798-341-R-J2-PDC spheroids, viability
Assay: Anticancer human tumor 313798-341-R-J2-PDC patient-derived cervical squamous cell carcinoma cell line growth inhibition [PI3K]
Conditions: spheroids with HUVEC and MSC; for IC50: curve of first compound; for viability, T/C: stronger effect = lower value
Summary of the method: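 Spheroid viability read-out. Co-cultures contained the tumor line plus HUVEC and human MSCs. Each agent was paired with a PI3K inhibitor (inavolisib, alpelisib, duvelisib, copanlisib) across half-log dilutions starting at clinical Cmax, or at 10 microM when Cmax was unknown.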

[1] = second compound 0.0316 µM, first compound 0.0316 µM
[2] = second compound 0.0316 µM, first compound 0.1 µM
[3] = second compound 0.0316 µM, first compound 0.316 µM
[4] = second compound 0.0316 µM, first compound 1 µM
[5] = second compound 0.0316 µM, first compound 3.16 µM
[6] = second compound 0.0316 µM, first compound 10 µM
[7] = second compound 0.1 µM, first compound 0.0316 µM
[8] = second compound 0.1 µM, first compound 0.1 µM
[9] = second compound 0.1 µM, first compound 0.316 µM
[10] = second compound 0.1 µM, first compound 1 µM
[11] = second compound 0.1 µM, first compound 3.16 µM
[12] = second compound 0.1 µM, first compound 10 µM
[13] = second compound 0.316 µM, first compound 0.0316 µM
[14] = second compound 0.316 µM, first compound 0.1 µM
[15] = second compound 0.316 µM, first compound 0.316 µM
[16] = second compound 0.316 µM, first compound 1 µM
[17] = second compound 0.316 µM, first compound 3.16 µM
[18] = second compound 0.316 µM, first compound 10 µM
[19] = second compound 1 µM, first compound 0.0316 µM
[20] = second compound 1 µM, first compound 0.1 µM
[21] = second compound 1 µM, first compound 0.316 µM
[22] = second compound 1 µM, first compound 1 µM
[23] = second compound 1 µM, first compound 3.16 µM
[24] = second compound 1 µM, first compound 10 µM
[25] = second compound 3.16 µM, first compound 0.0316 µM
[26] = second compound 3.16 µM, first compound 0.1 µM
[27] = second compound 3.16 µM, first compound 0.316 µM
[28] = second compound 3.16 µM, first compound 1 µM
[29] = second compound 3.16 µM, first compound 3.16 µM
[30] = second compound 3.16 µM, first compound 10 µM
[31] = second compound 10 µM, first compound 0.0316 µM
[32] = second compound 10 µM, first compound 0.1 µM
[33] = second compound 10 µM, first compound 0.316 µM
[34] = second compound 10 µM, first compound 1 µM
[35] = second compound 10 µM, first compound 3.16 µM
[36] = second compound 10 µM, first compound 10 µM
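Also: spheroids exposed to compounds for seven days.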
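For viability, T/C in this document: 100% = DMSO vehicle control viability.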

`CC1(C)CCC(Nc2ncc(C(F)(F)F)c(-c3c[nH]c4c(P(C)(C)=O)c(C#N)ccc34)n2)CN1` (centres undefined) + CC(Nc1ncnc2nc[nH]c12)c1cc2cccc(Cl)c2c(=O)n1-c1ccccc1 was tested, and the IC50 (second compound 0.0316 µM) was less than 31.6 nM, the IC50 (second compound 0.1 µM) was less than 31.6 nM and the IC50 (second compound 0.316 µM) was less than 31.6 nM. The IC50 (second compound 1 µM) was less than 31.6 nM, the IC50 (second compound 3.16 µM) was less than 31.6 nM and the IC50 (second compound 10 µM) was less than 31.6 nM. For the same compound, the viability, T/C [1] was 54.2%, the viability, T/C [2] was 46.3% and the viability, T/C [3] was 46.9%. It also gave a viability, T/C [4] of 48%, a viability, T/C [5] of 50.5% and a viability, T/C [6] of 60.4%. For the same compound, the viability, T/C [7] was 47.3%, the viability, T/C [8] was 49.3% and the viability, T/C [9] was 47.3%. For the same compound, the viability, T/C [10] was 46.8%, the viability, T/C [11] was 50.3% and the viability, T/C [12] was 66.6%. For the same compound, the viability, T/C [13] was 49.3%, the viability, T/C [14] was 44.3% and the viability, T/C [15] was 44.3%. For the same compound, the viability, T/C [16] was 43.8%, the viability, T/C [17] was 51.8% and the viability, T/C [18] was 62.3%. The viability, T/C [19] was 47.4%, the viability, T/C [20] was 46.8% and the viability, T/C [21] was 45.5%. It also gave a viability, T/C [22] of 49.2%, a viability, T/C [23] of 54% and a viability, T/C [24] of 58.2%. For the same compound, the viability, T/C [25] was 49.2%, the viability, T/C [26] was 45.4% and the viability, T/C [27] was 42.7%. It also gave a viability, T/C [28] of 45.8%, a viability, T/C [29] of 43.7% and a viability, T/C [30] of 50.3%. For the same compound, the viability, T/C [31] was 42.1%, the viability, T/C [32] was 36.2% and the viability, T/C [33] was 35%. For the same compound, the viability, T/C [34] was 34.5%, the viability, T/C [35] was 38.1% and the viability, T/C [36] was 38.1%.

`Cn1ncc(Cl)c1-c1cc(C(=O)NC(CN)Cc2cccc(F)c2)sc1Cl` (centres undefined) + CC(Nc1ncnc2nc[nH]c12)c1cc2cccc(Cl)c2c(=O)n1-c1ccccc1 was tested, and the IC50 (second compound 0.0316 µM) was 777 nM, the IC50 (second compound 0.1 µM) was 984 nM and the IC50 (second compound 0.316 µM) was 1100 nM. The IC50 (second compound 1 µM) was 1080 nM, the IC50 (second compound 3.16 µM) was 790 nM and the IC50 (second compound 10 µM) was 785 nM. The viability, T/C [1] was 86.5%, the viability, T/C [2] was 82.8% and the viability, T/C [3] was 73.1%. It also gave a viability, T/C [4] of 43.1%, a viability, T/C [5] of 34.9% and a viability, T/C [6] of 30.9%. The viability, T/C [7] was 108%, the viability, T/C [8] was 89.5% and the viability, T/C [9] was 84.4%. It also gave a viability, T/C [10] of 48.6%, a viability, T/C [11] of 32.2% and a viability, T/C [12] of 34.8%. It also gave a viability, T/C [13] of 97.5%, a viability, T/C [14] of 92.8% and a viability, T/C [15] of 70.8%. For the same compound, the viability, T/C [16] was 54.9%, the viability, T/C [17] was 32.2% and the viability, T/C [18] was 30.9%. For the same compound, the viability, T/C [19] was 101%, the viability, T/C [20] was 88.2% and the viability, T/C [21] was 77.9%. The viability, T/C [22] was 47.5%, the viability, T/C [23] was 38.8% and the viability, T/C [24] was 29%. The viability, T/C [25] was 107%, the viability, T/C [26] was 86.1% and the viability, T/C [27] was 62.4%. For the same compound, the viability, T/C [28] was 49.3%, the viability, T/C [29] was 32.5% and the viability, T/C [30] was 30.8%. The viability, T/C [31] was 87%, the viability, T/C [32] was 78.1% and the viability, T/C [33] was 67.8%. For the same compound, the viability, T/C [34] was 46.5%, the viability, T/C [35] was 27.7% and the viability, T/C [36] was 25.8%.
